In ChEMBL document CHEMBL2010729, “Facile synthesis of triterpenoid saponins bearing β-Glu/Gal-(1→3)-β-GluA methyl ester and their cytotoxic activities” (Bioorg Med Chem Lett, 2012):
pIC50: −log10 of the molar value. Activity calls are given as the source filed them. The calls are words filed in the database; no cut-off is given here.

What was measured:
MCF7 [1] = test: Cytotoxicity against human MCF7 cells after 48 hrs by MTT assay; format: functional, cell-based; conditions: MCF7, 48 h
HepG2 = test: Cytotoxicity against human HepG2 cells after 48 hrs by MTT assay; format: functional, cell-based; conditions: HepG2, 48 h
K562 = test: Cytotoxicity against human K562 cells after 48 hrs by MTT assay; format: functional, cell-based; conditions: K562, 48 h
MCF7 [2] = test: Induction of apoptosis in human MCF7 cells assessed as apoptotic cells at 2 uM after 24 hrs using propidium iodide/annexin V staining by flow cytometry (reference value: 3.07 %); format: functional
MCF7 [3] = test: Induction of apoptosis in human MCF7 cells assessed as pre-necrotic cells at 1 uM after 24 hrs using propidium iodide/annexin V staining by flow cytometry (reference value: 0.05 %); format: functional
MCF7 [4] = test: Induction of apoptosis in human MCF7 cells assessed as late apoptotic cells at 3 uM after 24 hrs using propidium iodide/annexin V staining by flow cytometry (reference value: 0.11 %); format: functional
MCF7 [5] = test: Induction of apoptosis in human MCF7 cells assessed as late apoptotic cells at 2 uM after 24 hrs using propidium iodide/annexin V staining by flow cytometry (reference value: 0.11 %); format: functional
MCF7 [6] = test: Induction of apoptosis in human MCF7 cells assessed as loss of mitochondrial membrane potential by JC-1 staining based flow cytometry; format: functional, cell-based
MCF7 [7] = test: Induction of apoptosis in human MCF7 cells assessed as membrane blebbing at 1 to 3 uM after 24 hrs by DAPI staining based confocal laser scanning microscopy; format: functional, cell-based
MCF7 [8] = test: Induction of apoptosis in human MCF7 cells assessed as increase in ROS production after 24 hrs by fluorescence analysis; format: functional, cell-based
MCF7 [9] = test: Induction of apoptosis in human MCF7 cells assessed as apoptotic cells at 1 uM after 24 hrs using propidium iodide/annexin V staining by flow cytometry (reference value: 3.07 %); format: functional
MCF7 [10] = test: Induction of apoptosis in human MCF7 cells assessed as pre-necrotic cells at 3 uM after 24 hrs using propidium iodide/annexin V staining by flow cytometry (reference value: 0.05 %); format: functional
MCF7 [11] = test: Induction of apoptosis in human MCF7 cells assessed as apoptotic cells at 3 uM after 24 hrs using propidium iodide/annexin V staining by flow cytometry (reference value: 3.07 %); format: functional
MCF7 [12] = test: Induction of apoptosis in human MCF7 cells assessed as cell shrinkage at 1 to 3 uM after 24 hrs by DAPI staining based confocal laser scanning microscopy; format: functional
MCF7 [13] = test: Induction of apoptosis in human MCF7 cells assessed as chromatin condensation at 1 to 3 uM after 24 hrs by DAPI staining based confocal laser scanning microscopy; format: functional, cell-based
MCF7 [14] = test: Induction of apoptosis in human MCF7 cells assessed as pre-necrotic cells at 2 uM after 24 hrs using propidium iodide/annexin V staining by flow cytometry (reference value: 0.05 %); format: functional
MCF7 [15] = test: Induction of apoptosis in human MCF7 cells assessed as late apoptotic cells at 1 uM after 24 hrs using propidium iodide/annexin V staining by flow cytometry (reference value: 0.11 %); format: functional
MCF7 [16] = test: Induction of apoptosis in human MCF7 cells assessed as apoptotic body formation at 1 to 3 uM after 24 hrs by DAPI staining based confocal laser scanning microscopy; format: functional, cell-based

Row | SMILES | pIC50 (MCF7 [1]) | pIC50 (HepG2) | pIC50 (K562) | further results
1 | COC(=O)[C@H]1O[C@@H](O[C@H]2CC[C@]3(C)[C@H]4C(=O)C=C5[C@@H]6C[C@@](C)(C(=O)O)CC[C@]6(C)CC[C@@]5(C)[C@]4(C)CC[C@H]3C2(C)C)[C@H](O)[C@@H](O[C@@H]2O[C@H](CO)[C@@H](O)[C@H](O)[C@H]2O)[C@@H]1O | < 4.22 | < 4.22 | < 4.22 | 
2 | COC(=O)[C@H]1O[C@@H](O[C@H]2CC[C@]3(C)[C@H]4C(=O)C=C5[C@@H]6C[C@@](C)(C(=O)O)CC[C@]6(C)CC[C@@]5(C)[C@]4(C)CC[C@H]3C2(C)C)[C@H](O)[C@@H](O[C@@H]2O[C@H](CO)[C@H](O)[C@H](O)[C@H]2O)[C@@H]1O | < 4.22 | < 4.22 | < 4.22 | 
3 | COC(=O)[C@H]1O[C@@H](O[C@H]2CC[C@]3(C)[C@H]4CC=C5[C@@H]6CC(C)(C)CC[C@]6(C(=O)O)CC[C@@]5(C)[C@]4(C)CC[C@H]3C2(C)C)[C@H](O)[C@@H](O[C@@H]2O[C@H](CO)[C@@H](O)[C@H](O)[C@H]2O)[C@@H]1O [SPINASAPONIN A METHYL ESTER] | 5.34 | 5.08 | 4.80 | 
4 | COC(=O)[C@H]1O[C@@H](O[C@H]2CC[C@]3(C)[C@H]4CC=C5[C@@H]6[C@@H](C)[C@H](C)CC[C@]6(C(=O)O)CC[C@@]5(C)[C@]4(C)CC[C@H]3C2(C)C)[C@H](O)[C@@H](O[C@@H]2O[C@H](CO)[C@@H](O)[C@H](O)[C@H]2O)[C@@H]1O | 4.63 | 4.35 | < 4.22 | 
5 | COC(=O)[C@H]1O[C@@H](O[C@H]2CC[C@]3(C)[C@H]4CC=C5[C@@H]6CC(C)(C)CC[C@]6(C(=O)O)CC[C@@]5(C)[C@]4(C)CC[C@H]3C2(C)C)[C@H](O)[C@@H](O[C@@H]2O[C@H](CO)[C@H](O)[C@H](O)[C@H]2O)[C@@H]1O | 5.73 | 5.65 | 5.63 | Activity (MCF7 [2]): 2.42%; Activity (MCF7 [3]): 2.2%; Activity (MCF7 [4]): 29.61%; Activity (MCF7 [5]): 18.44%; Activity (MCF7 [6]): Dose-dependent effect; Activity (MCF7 [7]): Active; Activity (MCF7 [8]): Dose-dependent effect; Activity (MCF7 [9]): 4.33%; Activity (MCF7 [10]): 18.81%; Activity (MCF7 [11]): 3.26%; Activity (MCF7 [12]): Active; Activity (MCF7 [13]): Active; Activity (MCF7 [14]): 2.84%; Activity (MCF7 [15]): 8.43%; Activity (MCF7 [16]): Active
6 | COC(=O)[C@H]1O[C@@H](O[C@H]2CC[C@]3(C)[C@H]4CC=C5[C@@H]6[C@@H](C)[C@H](C)CC[C@]6(C(=O)O)CC[C@@]5(C)[C@]4(C)CC[C@H]3C2(C)C)[C@H](O)[C@@H](O[C@@H]2O[C@H](CO)[C@H](O)[C@H](O)[C@H]2O)[C@@H]1O | 4.66 | 4.33 | < 4.22 | 
